Here are results for two molecules from US20250026745A1 (Bluejay Therapeutics, Inc., priority 2023, published 2025).

Like-named read-outs stand apart in the source and are kept apart here.

The conditions of data set [1]: cited from earlier work.
The target in data set [2] is recombinant 17β-HSD13 protein (Homo sapiens (Human), UniProt Q7Z5P4). The experiment in a line: 17β-HSD13 biochemical assay (NAD+/NADH Glo chemiluminescence). Particulars: 17β-HSD13 50 nM, NAD+ 10 mM, β-estradiol 20 μM, 2 hours room temperature. A digest of the protocol:
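Compounds preincubated 1 h at room temperature with 50 nM enzyme and 10 mM NAD+ (final) in 200 mM Tris pH 7.5, 0.01% Triton X-100, 0.02% BSA. Reaction started with 20 μM β-estradiol and run 2 hours at room temperature; NADH formation detected by NAD+/NADH-Glo chemiluminescence. IC50 from four-parameter logistic fit.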

Data set [3] has as its target HEK293 cells expressing 17β-HSD13 (Homo sapiens (Human), UniProt Q7Z5P4). Kind of data set: 17β-HSD13 cell-based assay (β-estradiol conversion, LC-MS/MS). How it is done:
HEK293 cells expressing 17β-HSD13 either stably or transiently were incubated with compounds for 60 min at 37° C. in a humidified incubator. After this first incubation step, β-estradiol was added to each well of the microtiter plate and incubated for 3 h at 37° C. in the humidified incubator. After treatment with β-Estradiol, 50 μL of supernatant was transferred to a 96-V plate containing 100 μL acetonitrile and centrifuged at 3900 rpm for 45 min. Finally, 50 μL of supernatant were taken for LC-MS/MS analysis. The chromatography part was run on a Xbridge 30 mm×2.1 mm column (Waters), at 40 degrees Celsius and a flow rate of 0.8 mL/min for 5 min, while the MS was done on a Q Exactive Orbitrap (Fisher Scientific) in Target SIM mode and negative polarity with a spray voltage of 3.5 kV. EC50 values were determined with GraphPad Prism®, where log-transformed concentration values and the inhibition data were fitted to a four-parameter logistic equation. Y=Bottom+(Top−Bottom)/(1+10^((Log EC50−X)*Hill Slope)). The original, % control, or % inhibition data are represented by Y along with their minimal (Bottom) and maximal (Top) values. The inhibitor concentration is represented by X, EC50 is the concentration at 50% maximal value, and Hill Slope is the slope factor.

The nature of data set [4]: Recovery of glucuronide Compound I-51 spiked into mouse liver tissue homogenate (30% ACN in water with 2% FA). The format is in vitro ADME. The conditions noted are these: parent Compound I-16 measured in I-51-spiked sample. From the text: Compound I-51, a glucuronide of compound I-16, was used to develop methodology to ensure the glucuronide metabolite of the phenol could be stabilized in liver tissue to glucuronidase and other enzymatic cleavage in order to determine accurate levels of parent:glucuronide in the liver tissue. A known amount of Compound I-51 was spiked into a gram of mouse liver tissue where 2% formic acid (FA) was used with 30% acetonitrile (ACN) in water to stop all enzymatic glucuronidase activity.
Comparison of Treatment on ‘30% ACN in Water with 2% FA’ Homogenate Buffer for Compound I-51:
1). Prepared the homogenate buffer ‘30% ACN in water with 2% FA’ (including […] Compound 1-51), then homogenized with the liver tissue together. Due to the ratio of 1:9 (1 g tissue with 9 mL buffer), the final concentration was 900 ng/mL.
2). An aliquot of 20 μL sample were taken for analysis. Compound I-51 was Added after Homogenate:
1). The liver tissue was homogenized with the buffer ‘30% ACN in water with 2% FA’, then 2 μL 18 µg/mL Compound I-51 was spiked in 38 μL liver homogenate, the final concentration was 900 ng/mL. 2). An aliquot of 20 μL sample were taken for analysis. […]
The amount of parent was measured under these conditions Compound I-16 after generating a standard curve for Compound I-16.

Chain of HEK293 cells expressing 17β-HSD13 (Q7Z5P4 20-300): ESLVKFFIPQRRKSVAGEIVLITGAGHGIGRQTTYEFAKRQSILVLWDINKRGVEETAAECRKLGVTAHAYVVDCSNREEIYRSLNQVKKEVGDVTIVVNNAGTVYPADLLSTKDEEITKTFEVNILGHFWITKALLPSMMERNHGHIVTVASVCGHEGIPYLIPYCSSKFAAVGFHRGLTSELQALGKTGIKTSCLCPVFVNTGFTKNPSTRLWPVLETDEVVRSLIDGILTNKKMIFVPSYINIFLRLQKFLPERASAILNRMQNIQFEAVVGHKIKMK
Chain of recombinant 17β-HSD13 protein (Q7Z5P4 20-300): as above

Turning to `CCn1c(=O)c(C)cn(Cc2ccc(-c3ccc(F)c(O)c3F)s2)c1=O` [BI-3231], in data set [1], the “glucuronidation / in vivo clearance” value is listed as “prone to rapid glucuronidation on the phenol moiety leading to fast in vivo clearance”.
Take `O=C1N(CC(F)(F)F)C(=O)C2(CC2)N1Cc1nnc(-c2ccc(F)c(O)c2Cl)s1` [Compound I-16, 4-((5-(2-chloro-4-fluoro-3-hydroxyphenyl)-1,3,4-thiadiazol-2-yl)methyl)-6-(2,2,2-trifluoroethyl)-4,6-diazaspiro[2.4]heptane-5,7-dione]: the IC50 in data set [2] stood at 12.9 ± 2.43 nM. Also, the EC50 is 37.1 nM in data set [3] (HEK293 cells stably expressing 17β-HSD13 (footnote b), read-out: EC50, nM Stable) and 107 nM in data set [3] (HEK293 cells transiently expressing 17β-HSD13 (footnote a), read-out: EC50, nM Transient). The “Calculated Concentration (ng/mL) of parent” value is given as 5.237 ng/mL in data set [4] (after homogenate) and 5.618 ng/mL in data set [4] (before homogenate).
